This passage reports MICPI, MICTI and LD50 results from US20230048678A1, “ICAN DERIVATIVES FOR ANTIFUNGAL USE” (DEBRECENI EGYETEM, priority 2019, published 2023).

Holding throughout (type): cell-based
Series [1] has as its system C. parapsilosis ATCC 22019. The experiment in a line: CLSI broth microdilution susceptibility (Table 1). Conditions: 48 h, 35° C.; for MICPI: partial (50%) inhibition; for MICTI: total inhibition. The method, then:
(§1) ICAN has 3 key moieties, namely the amino, naphthalene and isonitrile. To find out which ones of them are essential for the antifungal behavior and to design more efficient derivatives, comparative studies were carried out, where one of the moieties was exchanged or eliminated. All ICAN derivatives were tested against C. albicans SC5314, C. krusei ATCC 6258 and C. parapsilosis ATCC 22019. The antifungal agents were dissolved in 100% DMSO and diluted further in RPMI-1640 (with L-glutamine but without bicarbonate) and buffered to pH 7.0 with 0.165 M morpholinopropanesulfonic acid (MOPS). MICs were read visually after 48-h incubation at 35° C. using the partial (50%) inhibition (for ICAN derivatives) (PI) and total inhibition (for AMB and ICAN derivatives) (TI) criteria. MICs were determined at least twice.
(§2) The tested C. albicans, C. tropicalis, C. parapsilosis, C. glabrata and C. krusei ATCC strains and clinical isolates are listed in Table 2. MICs were determined according to the CLSI M27-A3 [22]. Antifungal agents were dissolved in 100% DMSO and diluted further in RPMI-1640 (with L-glutamine but without bicarbonate) (Sigma, Budapest, Hungary), and buffered to pH 7.0 with 0.165 M morpholinopropanesulfonic acid (MOPS; Sigma, Budapest, Hungary). The final concentration ranges used for AMB and ICAN derivatives were 0.125 to 4 μg/ml and 0.04 to 20 μg/ml, respectively. Yeast cell suspensions were prepared in RPMI 1640 medium and were adjusted to give a final inoculum concentration of 0.5×10^3 to 2.5×10^3 cells/ml. MICs were read visually after 48-h incubation at 35° C. using the partial (50%) inhibition (for ICAN derivatives) (PI) and total inhibition (for AMB and ICAN derivatives) (TI) criteria. MICs were determined at least twice. For amphotericin B isolates with MIC values of ≤2 mg/L were considered wild-types. [Pfaller M A, 2012]

Another series has as its system C. albicans SC5314. The experiment in a line: CLSI broth microdilution susceptibility (Table 1). To be noted: 48 h, 35° C.; for MICPI: partial (50%) inhibition; for MICTI: total inhibition. The method, then:
as §1, §2
(Dilution methods test growth across graded concentrations, often in twofold steps.)

Another series concerns C. krusei ATCC 6258. The experiment in a line: CLSI broth microdilution susceptibility (Table 1). Conditions: 48 h, 35° C.; for MICPI: partial (50%) inhibition; for MICTI: total inhibition. The method, then: as §1, §2
Series [2] relates to C. albicans SC5314, C. krusei ATCC 6258 and C. parapsilosis ATCC 22019. As to the kind of experiment: CLSI broth microdilution, MIC summarised over the three Candida test strains. To be noted: for MICTI: value or range over the three Candida strains of Table 1, total inhibition. The protocol: as §1, §2
The next series deals with human cell cultures. As to the kind of experiment: MTT bio assay cytotoxicity. To be noted: MTT bio assay technique. (Formazan colour is commonly taken as a measure of viable cells.)

For the compound `[C-]#[N+]c1ccc([N+]#[C-])cc1` [PDI, 1,4-phenylenediisocyanide, reference compound], the MICPI (in series [1]; against C. albicans SC5314; in the series with C. krusei ATCC 6258) was 50 µg/mL throughout. Besides, the MICTI (in series [1]; in the series with C. albicans SC5314; in the series with C. krusei ATCC 6258) was 100 µg/mL in each case.

For `[C-]#[N+]c1cccc2c(N)cccc12` [ICAN, 1-amino-5-isocyanonaphthalene], the MICPI turned out to be 0.3 µg/mL in series [1], 1.25 µg/mL with C. albicans SC5314 and 0.6 µg/mL against C. krusei ATCC 6258. For the same compound, the MICTI in series [1] was 0.6 µg/mL; against C. albicans SC5314, 5 µg/mL; against C. krusei ATCC 6258, 2.5 µg/mL; in series [2], 0.6 to 5 µg/mL. Further, in the series on human cell cultures, the LD50 came to 10 µg/mL.

Turning to `[C-]#[N+]c1cccc2c([N+]#[C-])cccc12` [DIN, 1,5-diisocyanonaphthalene], the MICPI stood at 0.3 µg/mL in series [1]; 0.3 µg/mL in the series on C. albicans SC5314; 0.3 µg/mL in the series on C. krusei ATCC 6258; 0.3 µg/mL in series [2] (value or range over the three Candida strains of Table 1, partial (50%) inhibition). The MICTI (in series [1]; against C. albicans SC5314; against C. krusei ATCC 6258; in series [2]) was 0.6 µg/mL throughout.

As to `Nc1cccc2c(N)cccc12` [DAN, 1,5-diaminonaphthalene, reference compound], the MICPI (in series [1]; with C. albicans SC5314; in the series on C. krusei ATCC 6258) was 50 µg/mL throughout. Moreover, the MICTI (in series [1]; against C. albicans SC5314; in the series on C. krusei ATCC 6258) was 100 µg/mL in each case.

As to `[C-]#[N+]c1cccc2c(NCCC)cccc12` [PICAN, N-(prop-1-yl)-1-amino-5-isocyanonaphthalene], the figures for the MICPI (in series [1]; with C. albicans SC5314; against C. krusei ATCC 6258) were 0.6 µg/mL, 0.6 µg/mL and 0.15 µg/mL, respectively. Besides, the MICTI in series [1] was 1.75 µg/mL; with C. albicans SC5314, 2.5 µg/mL; in the series on C. krusei ATCC 6258, 2.5 µg/mL; in series [2] it was 1.75-2. μg/ml.

With `[C-]#[N+]c1cccc2c(NCC)cccc12` [EICAN, N-ethyl-1-amino-5-isocyanonaphthalene], the MICPI (in series [1]; with C. albicans SC5314; in the series with C. krusei ATCC 6258) was 0.6 µg/mL each time. In addition, the MICTI in series [1] was 1.25 µg/mL; in the series on C. albicans SC5314 it was 2.5 µg/mL; with C. krusei ATCC 6258, 1.25 µg/mL; in series [2] it was 1.25 to 2.5 µg/mL.
